Tests used:
GST-tagged MDM2 = target: T1, GST-tagged MDM2 (Homo sapiens, UniProt Q00987); assay: HTRF enzyme inhibition assay, MDM2; format: biochemical; details: compound at 1 μM
T1 construct: purchased Cisbio Co. Ltd
Method: The enzymatic assay of test compounds is using the HTRF-based method provided by Cisbio Co. Ltd. In brief, the target compounds to be tested were prepared into samples with a concentration of 1 μM, which was added to GST-tagged MDM2 and HDAC1 proteins, respectively, then biotinylated substrate p53 peptide and HTRF detection reagents were added. The data obtained were processed by the ratio method, and the inhibition rates of MDM2 and HDAC1 were calculated. The detailed experimental procedures are according to the manufacturer’s protocols.

HDAC1 = HDAC1 (Homo sapiens, UniProt Q13547); assay: HTRF enzyme inhibition assay, HDAC1; details: read-out: % enzyme inhibition HDAC
Chain of HDAC1 (Q13547 whole entry): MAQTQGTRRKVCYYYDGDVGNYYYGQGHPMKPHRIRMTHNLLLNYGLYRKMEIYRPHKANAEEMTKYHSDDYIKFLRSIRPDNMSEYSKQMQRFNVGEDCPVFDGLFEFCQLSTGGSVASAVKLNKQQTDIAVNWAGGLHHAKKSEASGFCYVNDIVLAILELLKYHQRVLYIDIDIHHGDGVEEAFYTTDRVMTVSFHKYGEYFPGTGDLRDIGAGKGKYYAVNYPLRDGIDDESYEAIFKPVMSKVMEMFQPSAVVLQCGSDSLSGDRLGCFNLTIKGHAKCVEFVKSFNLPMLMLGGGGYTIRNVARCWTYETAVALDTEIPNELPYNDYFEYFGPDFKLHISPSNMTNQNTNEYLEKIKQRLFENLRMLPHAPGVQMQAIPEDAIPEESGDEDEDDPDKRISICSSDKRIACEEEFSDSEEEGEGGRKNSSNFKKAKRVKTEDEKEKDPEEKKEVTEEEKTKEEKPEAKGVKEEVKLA

T1 sequence (Q00987 whole entry): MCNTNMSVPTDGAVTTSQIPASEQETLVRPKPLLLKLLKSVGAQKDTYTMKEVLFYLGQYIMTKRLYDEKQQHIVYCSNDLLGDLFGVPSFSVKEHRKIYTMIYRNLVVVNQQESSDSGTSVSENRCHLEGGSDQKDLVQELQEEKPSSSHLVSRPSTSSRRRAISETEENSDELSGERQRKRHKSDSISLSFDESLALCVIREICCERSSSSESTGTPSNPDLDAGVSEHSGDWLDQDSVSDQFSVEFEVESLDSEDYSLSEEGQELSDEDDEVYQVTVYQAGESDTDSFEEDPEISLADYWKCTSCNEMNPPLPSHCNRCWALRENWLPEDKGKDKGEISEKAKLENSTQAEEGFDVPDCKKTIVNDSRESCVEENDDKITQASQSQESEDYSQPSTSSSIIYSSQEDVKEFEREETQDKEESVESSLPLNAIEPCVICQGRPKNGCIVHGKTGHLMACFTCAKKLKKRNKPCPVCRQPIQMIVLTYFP

Row | SMILES | inhibition at 1 µM (GST-tagged MDM2) | melting point | inhibition at 1 µM (HDAC1)
1 | O=C(CCCCCCCCC(=O)Nc1ccc([C@@H]2[C@H]3CSCN3[C@]3(C(=O)Nc4ccccc43)[C@H]2C(=O)c2ccccc2)cc1)NO [7q, N^1-(4-((3R,6'S,7'R,7a'S)-6'-benzoyl-2-oxo-1',6',7',7a'-tetrahydro-3'H-spiro[indoline-3,5'-pyrrolo[1,2-c]thiazol]-7'-yl)phenyl)-N^10-hydroxydecanediamide] | 42% | 131.9 to 132.1 °C | 71%
2 | O=C(CCCCCCC(=O)Nc1ccc([C@@H]2[C@H]3CSCN3[C@]3(C(=O)Nc4cc(Br)ccc43)[C@H]2C(=O)c2ccccc2)cc1)NO [7g, N^1-(4-((3R,6'S,7'R,7a'S)-6'-benzoyl-6-bromo-2-oxo-1',6',7',7a'-tetrahydro-3'H-spiro[indoline-3,5'-pyrrolo[1,2-c]thiazol]-7'-yl)phenyl)-N^8-hydroxyoctanediamide] | 59% | 149.8 to 152.1 °C | 68%
3 | Cc1ccc2c(c1)[C@@]1(C(=O)N2)[C@@H](C(=O)c2ccccc2)[C@H](c2ccc(NC(=O)CCCCCCC(=O)NO)cc2)[C@H]2CSCN21 [7b, N^1-(4-((3R,6'S,7'R,7a'S)-6'-benzoyl-5-methyl-2-oxo-1',6',7',7a'-tetrahydro-3'H-spiro[indoline-3,5'-pyrrolo[1,2-c]thiazol]-7'-yl)phenyl)-N^8-hydroxyoctanediamide] | 45% | 144.2 to 145.6 °C | 71%
4 | Nc1ccccc1NC(=O)CCCCCCC(=O)Nc1ccc([C@@H]2[C@H]3CSCN3[C@]3(C(=O)Nc4ccccc43)[C@H]2C(=O)c2ccccc2)cc1 [9b, N^1-(2-aminophenyl)-N^8-(4-((3R,6'S,7'R,7a'S)-6'-benzoyl-2-oxo-1',6',7',7a'-tetrahydro-3'H-spiro[indoline-3,5'-pyrrolo[1,2-c]thiazol]-7'-yl)phenyl)octanediamide] | 45% | 131.7 to 132.9 °C | 45%
5 | CN(C)c1ccc(C(=O)[C@H]2[C@H](c3ccc(NC(=O)CCCCCCC(=O)NO)cc3)[C@H]3CSCN3[C@]23C(=O)Nc2ccccc23)cc1 [7m, N^1-(4-((3R,6'S,7'R,7a'S)-6'-(4-(dimethylamino)benzoyl)-2-oxo-1',6',7',7a'-tetrahydro-3'H-spiro[indoline-3,5'-pyrrolo[1,2-c]thiazol]-7'-yl)phenyl)-N^8-hydroxyoctanediamide] | 40% | 148.7 to 150 °C | 68%
6 | Nc1ccccc1NC(=O)CCCCCCCCC(=O)Nc1ccc([C@@H]2[C@H]3CSCN3[C@]3(C(=O)Nc4cc(Cl)ccc43)[C@H]2C(=O)c2ccccc2)cc1 [9e, N^1-(2-aminophenyl)-N^10-(4-((3R,6'S,7'R,7a'S)-6'-benzoyl-6-chloro-2-oxo-1',6',7',7a'-tetrahydro-3'H-spiro[indoline-3,5'-pyrrolo[1,2-c]thiazol]-7'-yl)phenyl)decanediamide] | 56% | 132.4 to 133.9 °C | 47%
7 | O=C(CCCCCCC(=O)Nc1ccc([C@@H]2[C@H]3CSCN3[C@]3(C(=O)Nc4ccc(Br)cc43)[C@H]2C(=O)c2ccccc2)cc1)NO [7e, N^1-(4-((3R,6'S,7'R,7a'S)-6'-benzoyl-5-bromo-2-oxo-1',6',7',7a'-tetrahydro-3'H-spiro[indoline-3,5'-pyrrolo[1,2-c]thiazol]-7'-yl)phenyl)-N^8-hydroxyoctanediamide] | 48% | 146.8 to 148 °C | 72%
8 | CN1C[C@@H](c2ccc(NC(=O)CCCCCCC(=O)NO)cc2)[C@H](C(=O)c2ccccc2)[C@@]12C(=O)Nc1cc(Cl)ccc12 [13a, N^1-(4-((3R,3'S,4'R)-3'-benzoyl-6-chloro-1'-methyl-2-oxospiro[indoline-3,2'-pyrrolidin]-4'-yl)phenyl)-N^8-hydroxyoctanediamide] | 52% | 126.7 to 127.9 °C | 65%

Source: PMC9386376, “Discovery of spirooxindole-derived small-molecule compounds as novel HDAC/MDM2 dual inhibitors and investigation of their anticancer activity” (Frontiers in Oncology, 2022)
